The data set is described as follows: activity coefficient (dimensionless); of the first substance listed, at infinite dilution; xn = mol fraction of the nth substance listed. The following applies: 101.33 kPa, Liquid, Chromatography, x1 = 0.

Experimental findings from the NIST ThermoML archive (doi:10.1016/j.fluid.2018.09.024) are described below.

± gives the expanded uncertainty stated by the source.

Consider `C=Cc1ccccc1` [styrene] + CCCCCCCCCCCC[N+](C)(C)CCOc1ccccc1.O=S(=O)([N-]S(=O)(=O)C(F)(F)F)C(F)(F)F, for which the activity coefficient was 0.632 ± 0.044 (318.15 K); 0.672 ± 0.046 (328.15 K); 0.711 ± 0.047 (338.15 K); 0.75 ± 0.049 (348.15 K); 0.788 ± 0.051 (358.15 K); 0.83 ± 0.05 (368.15 K).

As for `C1CCOC1` [tetrahydrofuran] + CCCCCCCCCCCC[N+](C)(C)CCOc1ccccc1.N#C[N-]C#N, the activity coefficient by setting is: (328.15 K) 0.704 ± 0.047; (338.15 K) 0.726 ± 0.048; (348.15 K) 0.749 ± 0.049; (358.15 K) 0.77 ± 0.05; (368.15 K) 0.791 ± 0.051; (378.15 K) 0.81 ± 0.052.

With `C1CCOC1` [tetrahydrofuran] + CCCCCCCCCCCC[N+](C)(C)CCOc1ccccc1.O=S(=O)([N-]S(=O)(=O)C(F)(F)F)C(F)(F)F, the activity coefficient is, setting by setting: (318.15 K) 0.364 ± 0.033; (328.15 K) 0.39 ± 0.034; (338.15 K) 0.418 ± 0.035; (348.15 K) 0.446 ± 0.036; (358.15 K) 0.473 ± 0.037; (368.15 K) 0.502 ± 0.038.

For `c1ccsc1` [thiophene] + CCCCCCCCCCCC[N+](C)(C)CCOc1ccccc1.N#C[N-]C#N, the activity coefficient runs as follows: (328.15 K) 0.648 ± 0.044; (338.15 K) 0.674 ± 0.046; (348.15 K) 0.699 ± 0.047; (358.15 K) 0.724 ± 0.048; (368.15 K) 0.749 ± 0.049; (378.15 K) 0.773 ± 0.051.

For `c1ccsc1` [thiophene] + CCCCCCCCCCCC[N+](C)(C)CCOc1ccccc1.O=S(=O)([N-]S(=O)(=O)C(F)(F)F)C(F)(F)F, the activity coefficient came out at 0.534 ± 0.039 (318.15 K); 0.562 ± 0.04 (328.15 K); 0.591 ± 0.042 (338.15 K); 0.62 ± 0.043 (348.15 K); 0.649 ± 0.044 (358.15 K); 0.68 ± 0.046 (368.15 K).

Turning to `Cc1ccccc1` [toluene] + CCCCCCCCCCCC[N+](C)(C)CCOc1ccccc1.N#C[N-]C#N, the activity coefficient was determined as 1.05 ± 0.07 (328.15 K); 1.1 ± 0.07 (338.15 K); 1.15 ± 0.07 (348.15 K); 1.19 ± 0.08 (358.15 K); 1.24 ± 0.08 (368.15 K); 1.28 ± 0.08 (378.15 K).

With `Cc1ccccc1` [toluene] + CCCCCCCCCCCC[N+](C)(C)CCOc1ccccc1.O=S(=O)([N-]S(=O)(=O)C(F)(F)F)C(F)(F)F, the activity coefficient turned out to be 0.681 ± 0.046 (318.15 K); 0.725 ± 0.048 (328.15 K); 0.766 ± 0.05 (338.15 K); 0.81 ± 0.052 (348.15 K); 0.851 ± 0.055 (358.15 K); 0.893 ± 0.057 (368.15 K).

In the case of `C=COC(C)=O` [vinyl acetate] + CCCCCCCCCCCC[N+](C)(C)CCOc1ccccc1.N#C[N-]C#N, the activity coefficient (328.15 K) came out at 1.24 ± 0.08; the activity coefficient (338.15 K) turned out to be 1.28 ± 0.08; the activity coefficient (348.15 K) stood at 1.31 ± 0.09; the activity coefficient (358.15 K) was determined as 1.35 ± 0.09; the activity coefficient (368.15 K) is 1.38 ± 0.09; the activity coefficient (378.15 K) was 1.41 ± 0.09.

Take `C=COC(C)=O` [vinyl acetate] + CCCCCCCCCCCC[N+](C)(C)CCOc1ccccc1.O=S(=O)([N-]S(=O)(=O)C(F)(F)F)C(F)(F)F: the activity coefficient is, setting by setting: (318.15 K) 0.393 ± 0.034; (328.15 K) 0.414 ± 0.034; (338.15 K) 0.434 ± 0.035; (348.15 K) 0.453 ± 0.036; (358.15 K) 0.473 ± 0.037; (368.15 K) 0.493 ± 0.038.

`O` [water] + CCCCCCCCCCCC[N+](C)(C)CCOc1ccccc1.N#C[N-]C#N: the activity coefficient by setting is: (328.15 K) 0.467 ± 0.036; (338.15 K) 0.479 ± 0.037; (348.15 K) 0.489 ± 0.037; (358.15 K) 0.5 ± 0.04; (368.15 K) 0.51 ± 0.038; (378.15 K) 0.52 ± 0.039.

As to `O` [water] + CCCCCCCCCCCC[N+](C)(C)CCOc1ccccc1.O=S(=O)([N-]S(=O)(=O)C(F)(F)F)C(F)(F)F, the activity coefficient stood at 3.65 ± 0.25 (318.15 K); 3.32 ± 0.23 (328.15 K); 3.04 ± 0.21 (338.15 K); 2.8 ± 0.19 (348.15 K); 2.59 ± 0.18 (358.15 K); 2.4 ± 0.16 (368.15 K).
